In the supplement of paper PMC10307832:

Key:
Assay in all cases: relative viability (nuclei count vs DMSO), 5 days (fraction); higher = more cells survive
Idelalisib + Decitabine = compound: CC[C@H](Nc1ncnc2[nH]cnc12)c1nc2cccc(F)c2c(=O)n1-c1ccccc1 [Idelalisib] + Nc1ncn([C@H]2C[C@H](O)[C@@H](CO)O2)c(=O)n1 [Decitabine] (partner 2 µM)
Summary of the method: (§1)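 Five library-drug doses in √10 steps were combined with a fixed anchor-drug dose, or a single drug was given alone, by pin tool to lung cancer cell lines in 1536-well plates the day after seeding. Nuclei were stained and counted after 5 days. Relative viability is the nuclei count in treated wells over that in vehicle wells, taken as the median of duplicate plates.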

Idelalisib + Navitoclax = compound: CC[C@H](Nc1ncnc2[nH]cnc12)c1nc2cccc(F)c2c(=O)n1-c1ccccc1 [Idelalisib] + CC1(C)CCC(c2ccc(Cl)cc2)=C(CN2CCN(c3ccc(C(=O)NS(=O)(=O)c4ccc(N[C@H](CCN5CCOCC5)CSc5ccccc5)c(S(=O)(=O)C(F)(F)F)c4)cc3)CC2)C1 [Navitoclax] (partner 0.5 µM)
Summary of the method: as §1

Pemetrexed + AZD7762 = compound: Nc1nc2[nH]cc(CCc3ccc(C(=O)N[C@@H](CCC(=O)O)C(=O)O)cc3)c2c(=O)[nH]1 [Pemetrexed] + NC(=O)Nc1cc(-c2cccc(F)c2)sc1C(=O)N[C@H]1CCCNC1 [AZD7762] (partner 0.2 µM)
Summary of the method: as §1

Row | Cell Line | relative viability (Idelalisib + Decitabine; first compound 0.04 µM) | relative viability (Idelalisib + Decitabine; first compound 0.1265 µM) | relative viability (Idelalisib + Decitabine; first compound 0.4 µM) | relative viability (Idelalisib + Decitabine; first compound 1.265 µM) | relative viability (Idelalisib + Decitabine; first compound 4 µM) | relative viability (Idelalisib + Navitoclax; first compound 0.04 µM) | relative viability (Idelalisib + Navitoclax; first compound 0.1265 µM) | relative viability (Idelalisib + Navitoclax; first compound 0.4 µM) | relative viability (Idelalisib + Navitoclax; first compound 1.265 µM) | relative viability (Idelalisib + Navitoclax; first compound 4 µM) | relative viability (Pemetrexed + AZD7762; first compound 0.002 µM) | relative viability (Pemetrexed + AZD7762; first compound 0.006325 µM) | relative viability (Pemetrexed + AZD7762; first compound 0.02 µM) | relative viability (Pemetrexed + AZD7762; first compound 0.06325 µM) | relative viability (Pemetrexed + AZD7762; first compound 0.2 µM)
1 | 201T | 0.876 | 0.864 | 0.841 | 0.904 | 0.77 | 1.17 | 1.13 | 1.25 | 1.24 | 1.1 | 0.606 | 0.612 | 0.725 | 0.512 | 0.374
2 | NCI-H3122 | 0.461 | 0.418 | 0.358 | 0.444 | 0.369 | 1.07 | 1.04 | 1.02 | 0.995 | 0.961 | 1.04 | 0.863 | 0.966 | 0.4 | 0.276
3 | NCI-H838 | 0.467 | 0.44 | 0.478 | 0.563 | 0.464 | 1 | 1.14 | 1.07 | 1.05 | 0.977 | 0.934 | 0.862 | 0.757 | 0.635 | 0.579
4 | NCI-H1755 | 0.724 | 0.637 | 0.729 | 0.7 | 0.803 | 0.964 | 0.959 | 0.923 | 0.836 | 0.687 | 0.42 | 0.453 | 0.483 | 0.393 | 0.295
5 | HCC-15 | 0.687 | 0.692 | 0.547 | 0.82 | 0.622 | 0.692 | 0.712 | 0.67 | 0.699 | 0.591 | 1.11 | 1.13 | 1.48 | 0.903 | 0.448
6 | NCI-H2087 | 0.357 | 0.337 | 0.217 | 0.244 | 0.269 | 0.885 | 0.938 | 0.98 | 1.03 | 0.823 | 1.2 | 1.22 | 1.44 | 1.3 | 0.799
7 | LCLC-103H | 0.693 | 0.707 | 0.692 | 0.795 | 0.679 | – | – | – | – | – | 0.642 | 0.774 | 0.792 | 0.775 | 0.695
8 | NCI-H1650 | 0.456 | 0.465 | 0.515 | 0.359 | 0.448 | 1.15 | 1.39 | 1.08 | 1.15 | 0.748 | – | – | – | – | –
9 | LK-2 | 0.357 | 0.239 | – | 0.407 | 0.343 | 0.99 | 0.835 | – | 1.02 | 0.729 | 0.504 | 0.426 | 0.494 | 0.245 | 0.164
10 | NCI-H2342 | 0.802 | 0.764 | 0.658 | 0.668 | 0.618 | – | – | – | – | – | 0.354 | 0.492 | 0.392 | 0.524 | 0.443
11 | NCI-H522 | 0.665 | 0.67 | 0.645 | 0.631 | 0.698 | – | – | – | – | – | 0.999 | 0.806 | 1.05 | 0.91 | 0.805
12 | EBC-1 | – | – | – | – | – | 0.413 | 0.409 | 0.359 | 0.442 | 0.212 | – | – | – | – | –
13 | ChaGo-K-1 | 0.515 | 0.404 | 0.524 | 0.538 | 0.46 | 1.03 | 1.01 | 1.12 | 1.09 | 1.14 | 0.902 | 0.803 | 0.834 | 0.27 | 0.238
14 | HCC-78 | 0.738 | 0.731 | 0.667 | 0.647 | 0.665 | 0.762 | 0.648 | 0.682 | 0.797 | 0.505 | – | 0.505 | 0.42 | 0.3 | 0.236
15 | NCI-H1666 | 0.801 | 0.587 | 0.743 | 0.761 | 0.701 | 0.892 | 0.928 | 0.835 | 0.804 | 0.69 | 0.79 | 0.843 | 0.835 | 0.72 | 0.456
16 | IA-LM | – | – | – | – | – | 0.905 | 0.856 | 1.01 | 1.08 | 0.919 | – | – | – | – | –
17 | EKVX | 0.323 | 0.341 | 0.334 | 0.294 | 0.316 | 0.863 | 0.914 | 0.876 | 0.807 | 0.853 | 0.589 | 0.645 | 0.636 | 0.549 | 0.654
18 | COR-L 105 | 0.567 | 0.667 | 0.513 | 0.615 | 0.642 | 0.794 | 1.04 | 0.805 | 0.893 | 0.52 | – | – | – | – | –
19 | NCI-H322M | 0.712 | 0.69 | 0.613 | 0.664 | 0.746 | 1.2 | 1.2 | 1.09 | 1.25 | 1.04 | 0.709 | 0.634 | 0.565 | 0.637 | 0.557
20 | NCI-H1703 | – | – | – | – | – | 1.15 | 1.05 | 0.922 | 1.13 | 0.501 | 0.127 | 0.133 | 0.127 | 0.12 | 0.146
21 | NCI-H2023 | 0.25 | 0.236 | 0.241 | 0.197 | 0.208 | 1.05 | 1.02 | 0.994 | 0.945 | 0.939 | – | – | – | – | –
22 | NCI-H358 | 0.237 | 0.216 | 0.191 | 0.202 | 0.21 | – | – | – | – | – | 0.55 | 0.321 | 0.539 | 0.338 | 0.266
23 | A549 | 0.263 | 0.281 | 0.21 | 0.345 | 0.247 | 1.5 | 1.23 | 1.22 | 1.33 | 1.02 | – | – | – | – | –
24 | SK-LU-1 | 0.645 | 0.605 | 0.581 | 0.706 | 0.618 | 0.871 | 1.05 | 0.988 | 0.683 | 0.799 | – | – | – | – | –
25 | COR-L23 | 0.489 | 0.49 | 0.46 | 0.471 | 0.401 | 1.07 | 0.965 | 1.05 | 1.11 | 1.02 | – | – | – | – | –
26 | ABC-1 | 1.03 | 1.2 | 1.08 | 1.17 | 1.15 | – | – | – | – | – | 0.907 | 0.847 | 0.856 | 0.732 | 0.726
27 | NCI-H2009 | 0.4 | 0.35 | 0.322 | 0.405 | 0.381 | 1.11 | 1.17 | 1.19 | 1.22 | 1.18 | – | – | – | – | –
